Here are results for three molecules from US20230093131A1, “ASSESSING AND TREATING ALCOHOL-ASSOCIATED LIVER DISEASE” (Mayo Foundation for Medical Education and Research, priority 2020, published 2023).

Data set [1] relates to S1P receptors on primary human macrophages. In words: EV-activated macrophage inflammation (AH EVs on PBMC-derived macrophages). Type of data set: cell-based. On the procedure:
FIG. 14: EV-activated macrophage inflammation is SIP-dependent. A) TNF-α and B) IL-1β responses in primary human macrophages from AH subjects treated with EVs derived from HD (HD EV) or AH (AH EV) for 4 hours showing a significant increase in both cytokines by AH-EVs.
PBMC-derived macrophages were treated with EVs derived from HD or AH subjects.

Another data set deals with NF-κB. The data set is described as follows: ChIP-qPCR for NF-κB binding at CXCL super enhancer and CXCL1 promoter sites in LSECs. It counts as cell-based, human. Particulars: with and without TNFα, after inhibitor pretreatment, FIG. 20C, 20D. As for the experimental part: FIG. 20: Bromodomain inhibitors suppress expression of CXCLs by inhibition of transcription factor binding at CXCL super enhancer and promoter sites. A) LSECs were pretreated with iBET151 ([…]) (n=4). CXCL1, 6, and 8 expression levels were assessed by qPCR. Expression levels were normalized to basal condition and log10 fold change values were plotted. One-way matched-pairs ANOVA analysis was performed with Post-hoc Dunnett's multiple comparison correction. B and C) ChIP-qPCR assays for BRD4 binding (B) or NF-κB binding (C) with and without TNFα stimulation was assessed at CXCL super-enhancer and CXCL1 promoter sites after pretreatment with iBET151. D and E) Same experiments were repeated with Celastrol. Enrichment for either CXCL1 promoter (Promoter) or CXCL super enhancer (Super Enhancer) sequence was examined. Sequence enrichment was normalized to input. Box plots show […] quartiles and third quartiles; whiskers show maximum and minimum values. Two-way matched-pairs ANOVA was performed on log-transformed input percentage, with Post-hoc Sidak's multiple comparisons correction (n=3).
LSECs were treated with appropriate conditions as outlined separately, and underwent CHIP according to Millipore High-Sens ChIP kit (Millipore MAGNA0025) manufacture protocols. […]
On the technique in general: Quantitative PCR measures a nucleic acid by following its amplification.

Data set [2] deals with BET proteins (BRD2, 3, 4 and T). Conditions: Seal et al., Bioorg. Med. Chem. Lett. 2012; cited from earlier work.
The target of a further data set is T1, BRD4 (Homo sapiens, UniProt O60885).
T1 construct: Soluble chromatin was aliquoted and immunoprecipitated with magnetic beads with antibodies for BRD4 (Abcam ab128874); host or cells: primary human liver sinusoidal endothelial cells (LSECs)
The data set is described as follows: ChIP-qPCR for BRD4 binding at CXCL super enhancer and CXCL1 promoter sites in LSECs. Conditions: with and without TNFα, after inhibitor pretreatment, FIG. 20B, 20E. Type of data set: cell-based.

Data set [3] concerns alcohol fed/LPS C57BL/6 mice. In words: Murine chronic alcohol feeding/LPS model with iBET151. Type of data set: in vivo, mouse. On the procedure: FIG. 23: Bromodomain Inhibitor iBET151 Attenuates Liver CXCL Production and Neutrophil Infiltration in a Murine Alcohol Feeding/LPS Model. A) Schematic of alcohol feeding protocol. Mice were fed 5% alcohol diet or pair-fed control diet for 10 days. A subset of mice also received IP injection of iBET151 compound. Alcohol fed mice also received IP injection of LPS on day 11, 8 hours before sacrifice (n=6-8 in pair-fed groups, n=12-14 in alcohol fed groups). […] This response was attenuated by iBET151 injections. Expression levels were normalized to average expression of pair-fed control mice. C) IHC for MPO (neutrophil marker) is shown, with number of neutrophils per low power fields on y-axis. […] For all analysis, two-way ANOVA was performed on normalized expression values for qPCRs or cell counts for IHC staining or ALT values, with Post-hoc Tukey's multiple comparisons correction.
WT C57BL/6 mice (10-12 weeks) were purchased from Envigo Laboratories. Mice were subjected to chronic alcohol feeding to induce alcohol-induced liver injury with modification to the NIAAA model (see, e.g., Kong et al., Sci. Rep., 7(1):9292 (2017)). Briefly, mice were acclimated to liquid diet for 5 days, and were fed either 5% alcohol containing liquid diet or isocaloric pair-fed control diet. On Day 11, LPS (Invivogen tlrl-eblps) was intraperitoneally (IP) injected at 4 mg/kg to alcohol-fed mice. PBS of the same volume was given to pair-fed mice. All mice were sacrificed 8 hours later. A subset of mice, concurrent with alcohol or pair-feeding, was given injection of iBET151 daily. Mice were injected IP with iBET151 (6 mg/kg) in 10% Kleptose 2% DMSO solution or equal volume of carrier solution. On Day 11, drug or vehicle was administered 1 hour before LPS injection.
To generate an in vivo model with more exaggerated inflammation that could simulate human AH, a protocol of the chronic alcohol feeding model was modified by substituting the alcohol binge with a single LPS injection (FIG. 23A; see, also, Kong et al., Sci. Rep., 7(1):9292 (2017)). […] There was a significant increase in serum alanine aminotransferase (ALT) in alcohol fed/LPS mice (FIG. 23D). To assess the role of super enhancer activation in alcohol fed/LPS induced liver inflammation, the pan-BET inhibitor iBET151 was given to mice as daily IP injections alongside alcohol feeding or LPS injection.

The test system of a further data set is LSECs. In words: iBET151 LSEC cytotoxicity assay (IncuCyte). Type of data set: cell-based, human. Conditions: iBET151 and/or TNFα, ~30 minute intervals for 10 hours, FIG. 22. As for the experimental part: FIG. 22: iBET151 LSEC cytotoxicity assay. IncuCyte system was utilized to image cells and assess for cytotoxicity. Dying cells (black arrows) are stained green by fluorescent dye, and green cells are counted for each low power image field. Cells were pretreated with control medium or iBET151 and/or TNFα, and quantification for the percentage of dead cells was done at ˜30 minutes intervals for 10 hours starting at 15 minutes. Images shown were acquired after 4 hours of incubation. […] Error bars indicate SD, n=3.

A further data set deals with LSEC CXCL expression. The data set is described as follows: CXCL expression (qPCR) in LSECs pretreated with inhibitor, with or without TNFα stimulation. Type of data set: cell-based, human.
The test system of a further data set is HepG2Cyp2E1 cells. In words: Ethanol-induced EV release from HepG2Cyp2E1 cells (UTC isolation, NTA count). It counts as cell-based, human. Particulars: HepG2Cyp2E1 cells pretreated with IL-22 prior to ethanol. From the text: (§1) IL-22 is being investigated as a potential therapy in AH due to its hepatoprotective effects. To investigate if IL-22 can inhibit ethanol-induced EV release, HepG2Cyp2E1 (human hepatoma cells that can metabolize ethanol due to the enforced expression of cytochrome P450 2E1) cells were pretreated with IL-22 prior to the addition of ethanol. Subsequently, EVs were isolated from cell culture supernatants by UTC and quantified with NTA. Similarly, IL-22 reduced EV counts in AH patients after treatment.

The test system of a further data set is AH patients. The data set is described as follows: EV counts in AH patients after IL-22 treatment. It counts as in vivo, human.
Text: as §1

Where [4] appears, read: alcohol fed/LPS mice, iBET151 6 mg/kg IP daily, FIG. 23B.

“Also recorded” adds a separate entry of the source.

Procedure for BRD4: B and C) ChIP-qPCR assays for BRD4 binding (B) or NF-κB binding (C) with and without TNFα stimulation was assessed at CXCL super-enhancer and CXCL1 promoter sites after pretreatment with iBET151. D and E) Same experiments were repeated with Celastrol. Enrichment for either CXCL1 promoter (Promoter) or CXCL super enhancer (Super Enhancer) sequence was examined. Sequence enrichment was normalized to input. Box plots show top quartiles and third quartiles; whiskers show maximum and minimum values. Two-way matched-pairs ANOVA was performed on log-transformed input percentage, with Post-hoc Sidak's multiple comparisons correction (n=3).
LSECs were treated with appropriate conditions as outlined separately, and underwent CHIP according to Millipore High-Sens ChIP kit (Millipore MAGNA0025) manufacture protocols. Briefly, cells were crosslinked with formaldehyde (1% final concentration) followed by glycine treatment (100 mM) for 5 minutes each. Cells were washed, collected, and pelleted with centrifugation, and were then lysed with cell lysis buffer. Cells were repelleted and underwent nuclear lysis with provided nuclear lysis buffer, and DNA was sheared with ultrasonification. Soluble chromatin was aliquoted and immunoprecipitated with magnetic beads with antibodies for BRD4 (Abcam ab128874), NF-κB (Cell signaling 8242S), or H3K9me3 (Abcam ab8898) with appropriate isotype controls. […]
Procedure for LSEC CXCL expression: A) LSECs were pretreated with iBET151 (0-50 M) (n=4). CXCL1, 6, and 8 expression levels were assessed by qPCR. Expression levels were normalized to basal condition and log10 fold change values were plotted. One-way matched-pairs ANOVA analysis was performed with Post-hoc Dunnett's multiple comparison correction.
LSECs were pretreated with iBET151 (0-50 M) (n=4). CXCL2, 3, and 5 expression levels were assessed by qPCR. Expression levels were normalized to basal condition and log10 fold change values were plotted. One-way matched-pairs ANOVA analysis was performed with Post-hoc Dunnett's multiple comparison correction. Error bars indicate SD.
Primary human LSECs were purchased from ScienCell (Cat #5000) and cultured using standard cell culture techniques. Where appropriate, LSECs underwent TNFα (Peprotech, 300-01A) stimulation at 20 ng/mL. For experiments with BRD4 inhibitor, iBET151 (Cayman Chemical 11181), low passage LSECs were plated at 70% confluency and cultured overnight. Next, LSECs were serum starved for 2 hours in low serum medium (0.5% FBS in basal endothelial medium (Lonza CC-3121)). Inhibitors were added at concentrations indicated to low-serum medium, and cells were incubated in inhibitor containing medium for 2 hours. After inhibitor treatment, medium change was performed with TNFα (Peprotech 300-01A) at 20 ng/mL or control low-serum medium for 90 minutes incubation. LSECs were then collected for analysis. […] RNA was extracted and qPCR performed for expression of CXCLs.

Take `CCCCCCCCc1ccc(CCC(N)(CO)CO)cc1` [FTY720]: the “AH EV-activated proinflammatory signaling in macrophages” value in [1] (PBMC-derived macrophages treated with AH EVs) is on record as “significantly inhibited”. For the same molecule, the “TNF-α response to AH EVs” value in data set [1] (primary human macrophages from AH subjects, EVs for 4 hours, FTY 720 1 μM, FIG. 14A) was “significantly reduced”. Further, the “IL-1β response to AH EVs” value in data set [1] (primary human macrophages from AH subjects, EVs for 4 hours, FTY 720 1 μM, FIG. 14B) was “significantly reduced”.

As to `COc1cc2c(cc1-c1c(C)noc1C)ncc1[nH]c(=O)n([C@H](C)c3ccccn3)c12` [iBET151], the “NF-κB binding at CXCL super enhancer and CXCL1 promoter sites (ChIP)” value in the data set on NF-κB is reported as “trend for decreased”. For the same molecule, the “activity against both bromodomains (BD) of all four BET proteins” value in data set [2] is on record as “highly specific activity”. Further, the “BRD4 occupancy/binding at CXCL super enhancer and CXCL1 promoter sites (ChIP)” value on BRD4 is reported as “inhibitory effect”. Besides, in [3] (alcohol fed/LPS mice given iBET151, FIG. 26A), the “cleaved caspase 3 level in liver (Western blot)” value was “decrease; also recorded: attenuated”. In data set [3] (setting [4]), the “hepatic expression of Cxcl1 (qPCR)” value is listed as “significantly decreased” and the “hepatic expression of Cxcl2 (qPCR)” value is given as “significantly decreased”. The “neutrophil infiltration of the liver (Ly6g expression, MPO IHC)” value in data set [3] (alcohol fed/LPS mice, iBET151 6 mg/kg IP daily, FIG. 23B, 23C) is listed as “decreased”. For the same molecule, the “steatosis (BODIPY 493/503 stain)” value in [3] (alcohol fed/LPS mice, iBET151 6 mg/kg IP daily, FIG. 25, 6 mg/kg) is “decreased; also recorded: attenuated”. Besides, in data set [3] (alcohol feeding and LPS injection, IP iBET151, figure legends FIG. 19, FIG. 23B), the “liver CXCL chemokine production/elevation (qPCR)” value is “attenuated”. For the same molecule, the “neutrophil marker Ly6g (qPCR)” value in [3] (alcohol/LPS mice, IP iBET151, figure legends FIG. 19, FIG. 23B) was “reduced; also recorded: attenuated”. Besides, the “Malondialdehyde (MDA), lipid peroxidation, in mice livers” value in data set [3] (pair-fed or EtOH+LPS, vehicle or iBET151, FIG. 26B) is on record as “no difference among treatment groups”. In addition, the “8-Hydroxy-2′-deoxyguanosine (8-OHdG), DNA oxidation, in mice livers” value in data set [3] (pair-fed or EtOH+LPS, vehicle or iBET151, FIG. 26C) is “no difference among treatment groups”. For the same molecule, the “cytotoxicity (percentage of dead cells)” value in the data set on LSECs is “without significant cytotoxicity; also recorded: no significant difference among treatment groups”. Further, the “CXCL expression after TNFα stimulation” value with LSEC CXCL expression (HHSEC pretreated with varying amounts of iBET151, FIG. 18) is “suppresses”. The “CXCL2, 3, 5 expression (qPCR)” value in the data set on LSEC CXCL expression (LSECs pretreated with iBET151 (0-50 M), with TNFα and without TNFα, FIG. 21) is reported as “linear trend for decreasing”. The “LSEC CXCL expression” value in the data set on LSEC CXCL expression (in vitro, in the presence of iBET151, FIG. 20A, 21A, iBET151 0-50 M, TNFα 20 ng/mL) is on record as “significantly decreased”.

B1: IL-22: IL-22 polypeptide, hepatoprotective cytokine investigated as potential therapy in AH (protein, UniProt Q9GZX6 34-179, looked up)
Interleukin-22: APISSHCRLDKSNFQQPYITNRTFMLAKEASLADNNTDVRLIGEKLFHGVSMSERCYLMKQVLNFTLEEVLFPQSDRFQPYMQEVVPFLARLSNRLSTCHIEGDDLHIQRNVQKLKDTVKKLGESGEIKAIGELDLLFMSLRNACI
Take B1: the “ethanol-induced EV release” value with HepG2Cyp2E1 cells is “significantly inhibited”. The “EV counts in AH patients” value with AH patients is “reduced”.
